According to patent US20100035871A1, “BENZOXAZINE DERIVATIVES AND USES THEREOF” (priority 2006, published 2010):
pEC50, pKi: −log10 of the molar value.

Columns and labels:
human 5-HT2C receptor [1] = target: T1, human 5-HT2C receptor (Homo sapiens, UniProt P28335); test: 5-HT2C receptor binding, [125I]DOI displacement, membranes of transfected CHO cells; conditions: read-out: 5-HT2C Binding Ki avg
T1 construct: expressed in transfected cells; host or cells: CHO (Chinese Hamster Ovary) cells; membrane preparation
T1 sequence (P28335 33-458): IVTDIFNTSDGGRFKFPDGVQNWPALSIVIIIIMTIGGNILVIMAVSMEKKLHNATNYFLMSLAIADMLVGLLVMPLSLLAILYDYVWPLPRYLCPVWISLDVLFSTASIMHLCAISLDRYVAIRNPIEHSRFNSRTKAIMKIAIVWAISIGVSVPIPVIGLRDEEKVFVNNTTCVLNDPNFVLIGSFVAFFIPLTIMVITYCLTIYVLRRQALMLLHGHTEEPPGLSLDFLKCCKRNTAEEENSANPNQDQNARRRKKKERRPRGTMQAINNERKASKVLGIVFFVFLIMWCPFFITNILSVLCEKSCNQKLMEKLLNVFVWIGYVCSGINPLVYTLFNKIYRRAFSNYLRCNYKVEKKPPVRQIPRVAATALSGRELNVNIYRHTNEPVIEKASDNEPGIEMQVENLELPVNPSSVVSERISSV

human 5-HT2C receptor [2] = target: T1, human 5-HT2C receptor; test: 5-HT2C receptor-stimulated calcium mobilization (FLIPR) in CHO cells; assay type: cell-based; conditions: for Emax: CHO, read-out: 5-HT2C Function EMax (%); for pEC50: calcium mobilization, CHO cells, read-out: 5-HT2C Function EC50

Row | pKi (human 5-HT2C receptor [1]) | Emax (human 5-HT2C receptor [2]) [%] | pEC50 (human 5-HT2C receptor [2]) | SMILES
1 | 7.83 | 60 | 8.16 | NC[C@H]1CNc2cccc(-c3ccccc3Cl)c2O1 [Example 39, 1-[(2S)-8-(2-chlorophenyl)-3,4-dihydro-2H-1,4-benzoxazin-2-yl]methanamine]
2 | 7.85 | 70 | 8.52 | NCC1CNc2cccc(-c3ccccc3Cl)c2O1 (racemic) [Example 16, 1-[8-(2-Chlorophenyl)-3,4-dihydro-2H-1,4-benzoxazin-2-yl]methanamine]
3 | 7.89 | 70 | 6.88 | CN1CC(CN)Oc2c(-c3cc(Cl)ccc3Cl)cccc21 (racemic) [Example 13, 1-[8-(2,5-Dichlorophenyl)-4-methyl-3,4-dihydro-2H-1,4-benzoxazin-2-yl]methanamine]
4 | 8.04 | 70 | 7.43 | CN1CC(CN)Oc2c(-c3ccccc3Cl)cccc21 (racemic) [Example 11, 1-[8-(2-Chlorophenyl)-4-methyl-3,4-dihydro-2H-1,4-benzoxazin-2-yl]methanamine]
5 | 7.71 | 75 | 6.55 | Cc1cc(Cl)ccc1-c1cccc2c1OC(CN)CN2 (racemic) [Example 20, 1-[8-(4-chloro-2-methylphenyl)-3,4-dihydro-2H-1,4-benzoxazin-2-yl]methanamine]
6 | 7.92 | 80 | 7.15 | COc1ccc(-c2cccc3c2OC(CN)CN3C)cc1 (racemic) [Example 6, 1-[8-(4-Methoxyphenyl)-4-methyl-3,4-dihydro-2H-1,4-benzoxazin-2-yl]methanamine]
7 | 7.43 | 59 | 6.86 | COc1ccc(-c2cc(F)cc3c2NC(CN)CO3)c(Cl)c1 (racemic) [Example 59, 1-[5-(2-chloro-4-methoxyphenyl)-7-fluoro-3,4-dihydro-2H-1,4-benzoxazin-3-yl]methanamine]
8 | 7.98 | 80 | 7.70 | COc1ccc(-c2cccc3c2OC(CN)CN3C)c(C)c1 (racemic) [Example 5, 1-[8-(4-Methoxy-2-methylphenyl)-4-methyl-3,4-dihydro-2H-1,4-benzoxazin-2-yl]methanamine]
9 | 7.33 | 60 | 7.31 | COc1ccccc1-c1cccc2c1OC(CN)CN2C (racemic) [Example 1, 1-[8-(2-Methoxyphenyl)-4-methyl-3,4-dihydro-2H-1,4-benzoxazin-2-yl]methanamine]
10 | 7.88 | 70 | 6.91 | CN1CC(CN)Oc2c(-c3ccc(Cl)cc3Cl)cccc21 (racemic) [Example 3, 1-[8-(2,4-Dichlorophenyl)-4-methyl-3,4-dihydro-2H-1,4-benzoxazin-2-yl]methanamine]
11 | 7.64 | 40 | 6.78 | NCC1CN(CC2CC2)c2cccc(-c3ccccc3Cl)c2O1 (racemic) [Example 12, 1-[8-(2-Chlorophenyl)-4-(cyclopropylmethyl)-3,4-dihydro-2H-1,4-benzoxazin-2-yl]methanamine]
12 | 8.14 | 72 | 7.41 | NCC1CNc2cccc(-c3ccccc3C(F)(F)F)c2O1 (racemic) [Example 22, 1-{8-[2-(Trifluoromethyl)phenyl]-3,4-dihydro-2H-1,4-benzoxazin-2-yl}methanamine]
13 | 7.83 | 70 | 6.55 | Cc1cc(Cl)ccc1-c1cccc2c1OC(CN)CN2C (racemic) [Example 2, 1-[8-(4-Chloro-2-methylphenyl)-4-methyl-3,4-dihydro-2H-1,4-benzoxazin-2-yl]methanamine]
14 | 7.40 | 79 | 6.44 | NCC1CNc2cccc(-c3ccc(C(F)(F)F)cc3C(F)(F)F)c2O1 (racemic) [Example 23, 1-{8-[2,4-Bis(trifluoromethyl)phenyl]-3,4-dihydro-2H-1,4-benzoxazin-2-yl}methanamine]
15 | 7.48 | 74 | 9.14 | COc1ccc(-c2cccc3c2O[C@@H](CN)CN3)c(C)c1 [Example 50, 1-[(2S)-8-(4-methoxy-2-methylphenyl)-3,4-dihydro-2H-1,4-benzoxazin-2-yl]methanamine]
16 | 7.52 | 60 | 6.06 | Cc1ccc(-c2cc(Cl)cc3c2NC(CN)CO3)c(C(F)(F)F)c1 (racemic) [Example 31, 1-{7-chloro-5-[4-methyl-2-(trifluoromethyl)phenyl]-3,4-dihydro-2H-1,4-benzoxazin-3-yl}methanamine]
17 | 7.53 | 57 | 6.00 | COc1ccc(-c2cc(Cl)cc3c2NC(CN)CO3)c(Cl)c1 (racemic) [Example 32, 1-[7-chloro-5-(2-chloro-4-methoxyphenyl)-3,4-dihydro-2H-1,4-benzoxazin-3-yl]methanamine]
18 | 7.33 | 53 | 6.07 | NCC1COc2cc(Cl)cc(-c3ccccc3Cl)c2N1 (racemic) [Example 36, 1-[7-chloro-5-(2-chlorophenyl)-3,4-dihydro-2H-1,4-benzoxazin-3-yl]methanamine]
19 | 7.57 | 70 | 7.09 | Cc1ccccc1-c1cccc2c1OC(CN)CN2C (racemic) [Example 8, 1-[4-Methyl-8-(2-methylphenyl)-3,4-dihydro-2H-1,4-benzoxazin-2-yl]methanamine]
20 | 7.78 | 62 | 7.98 | NC[C@@H]1CNc2cccc(-c3ccccc3C(F)(F)F)c2O1 [Example 41, 1-{(2R)-8-[2-(trifluoromethyl)phenyl]-3,4-dihydro-2H-1,4-benzoxazin-2-yl}methanamine]
21 | 7.46 | 80 | 8.56 | NC[C@H]1CNc2cccc(-c3ccccc3C(F)(F)F)c2O1 [Example 47, 1-{(2S)-8-[2-(trifluoromethyl)phenyl]-3,4-dihydro-2H-1,4-benzoxazin-2-yl}methanamine]
22 | 9.05 | 70 | 8.30 | NCC1CNc2cc(F)cc(-c3c(Cl)cccc3Cl)c2O1 (racemic) [Example 10, 1-[8-(2,6-Dichlorophenyl)-6-fluoro-3,4-dihydro-2H-1,4-benzoxazin-2-yl]methanamine]
23 | 8.10 | 56 | 6.96 | NCC1CNc2cccc(-c3ccc(Cl)cc3C(F)(F)F)c2O1 (racemic) [Example 18, 1-{8-[4-Chloro-2-(trifluoromethyl)phenyl]-3,4-dihydro-2H-1,4-benzoxazin-2-yl}methanamine]
24 | 8.07 | 70 | 7.21 | CN1CC(CN)Oc2c(-c3ccccc3C(F)(F)F)cccc21 (racemic) [Example 4, 1-{4-Methyl-8-[2-(trifluoromethyl)phenyl]-3,4-dihydro-2H-1,4-benzoxazin-2-yl}methanamine]
